# Source: US4713374A, “Ganglioside derivatives” (priority 1984, dated 1987)
# Columns and labels:
# [1] = tested on: PC12 cells; experiment: Neurite sprouting in PC12 cells; type: cell-based; settings: 10^-6 M, serum-free vehicle with 50 ng/ml NGF, third day; controls 21.5
# Protocol: The cells are then washed three times in a serum-free vehicle. […] This effect is evaluated by counting the number of cells with neurites at the third day.
# [2] = tested on: (Na^+, K^+) ATPase of the neuronal membrane; experiment: (Na+,K+)ATPase activity of the neuronal membrane (rat brain P2 fraction); type: biochemical; settings: concentration 50 (50 nM), incubation with neuronal membranes 37° C. two hours; controls 100; 120 min
# Protocol: a. Preparation of the raw mitochondrial fraction of rat brain (Fraction P2):
# The procedure used in the preparation of P2 fraction was taken from Morgan e coll., Biochem. Biophys. Acta 241, 37 (1971). (The various operations were carried out at 0° to 4° C.; the xg values are average centrifugal forces).
# Adult male Sprague Dawley rats (supplied by Charles River) (body weight 150-175 g) were decapitated and their brains were immediately removed and washed in an ice cold isotonic solution. After excision of the cerebellum, the brains were homogenized by effecting 12 up and down movements in a motor-driven glass and Telfon homogenizer (declared radial clearance 0.25 mm; 800 r.p.m.) using 4 vol. of homogenizing solution (0.32M saccharose containing 1 mM potassium phosphate buffer and […] of disodium EDTA, pH 7.27). The homogenized substance, filtered through four layers of fine gauze, was centrifuged at 1000 r.p.m. for 15 minutes. The resulting pellet was washed with the same initial volume of homogenizing solution and centrifuged as described above. The gathered supernatants were centrifuged at 17,500 r.p.m. for 25 minutes (these conditions of gravitational centrifugal force were used to obtain the maximum enrichment of nervous terminations in the fraction) and the pellet was washed four times in 9 volumes (each time) of homogenizing solution and centrifuged (17,500 r.p.m. for 25 minutes).
# The final pellet, known as "P2 fraction" contains as its principal component, whole mitochondria and nervous terminations. The final pellet was homogeneously resuspended with a suitable volume of homogenizing solution with a glass and Teflon homogenizer, and used immediately for the test. […]
# ATPase activity was measured by spectrophotometry according to Wallick and coll. […] The (Na^+, K^+)ATPase activity is determined by the difference between the total ATPase activity and the dependent ATPase Mg^2+ activity measured in the presence of 3×10^-5 M of Ouabain. […] The ATPase activity was expressed as International Unit (I.U.) (μmoles hydrolized ATP/mg protein/min). […]
# [3] = set-up: species or system Swiss mice; settings: mouse, in vivo, iv
# Protocol: Labelled ganglioside is prepared as described by Suzuki et al. [J. Lipid Res. 13, 687-690 (1972)] and modified by Ghidoni et al. [Ital. J. Biochem. 23, 320-328 (1974)]. The ethyl and isopropyl esters are prepared by esterification of this labelled ganglioside. The specific radioactivity is measured both of the ganglioside and esters.
# Swiss mice obtained from Charles River (Calco), weighing about 20-25 g were treated by intravenous route with 10 μC of the products. 2-4-8-12-16 hours after administration, the animals were sacrificed by decapitation and their blood was gathered in heparinized flasks. The nonvolatile radioactivity was determined on blood samples by means of a Packard TRICARB scintillator and then identified with reference to ^3 H ganglioside and to the esters by TLC.
"% increase in (Na^+, K^+) ATPase activity [2] [%]",t/2 of first phase of blood kinetic curve [3],SMILES,% of the no. of cells with neurites at 3rd day [1] [%]
128,–,"CCCCCCCCCCCCC/C=C/[C@@H](O)[C@H](CO[C@@H]1O[C@H](CO)[C@@H](O[C@@H]2O[C@H](CO)[C@H](O[C@@H]3O[C@H](CO)[C@H](O)[C@H](O[C@@H]4O[C@H](CO)[C@H](O)[C@H](O)[C@H]4O)[C@H]3NC(C)=O)[C@H](O[C@]3(C(N)=O)C[C@H](O)[C@@H](NC(C)=O)[C@H]([C@H](O)[C@H](O)CO)O3)[C@H]2O)[C@H](O)[C@H]1O)NC(=O)CCCCCCCCCCCCCCCCC [Amide of GM1, Amide of the ganglioside GM1]",33.3
132,–,"CCCCCCCCCCCCC/C=C/[C@@H](O)[C@H](CO[C@@H]1O[C@H](CO)[C@@H](O[C@@H]2O[C@H](CO)[C@H](O[C@@H]3O[C@H](CO)[C@H](O)[C@H](O[C@@H]4O[C@H](CO)[C@H](O)[C@H](O)[C@H]4O)[C@H]3NC(C)=O)[C@H](O[C@]3(C(=O)OC)C[C@H](O)[C@@H](NC(C)=O)[C@H]([C@H](O)[C@H](O)CO)O3)[C@H]2O)[C@H](O)[C@H]1O)NC(=O)CCCCCCCCCCCCCCCCC [Methylic ester of GM1, Methyl ester of the ganglioside GM1]",35.7
–,–,"CCCCCCCCCCCCC/C=C/[C@@H](OC(C)=O)[C@H](CO[C@@H]1O[C@H](COC(C)=O)[C@@H](O[C@@H]2O[C@H](COC(C)=O)[C@H](O[C@@H]3O[C@H](COC(C)=O)[C@H](OC(C)=O)[C@H](O[C@@H]4O[C@H](COC(C)=O)[C@H](OC(C)=O)[C@H](OC(C)=O)[C@H]4OC(C)=O)[C@H]3NC(C)=O)[C@H](O[C@]3(C(=O)OC)C[C@H](OC(C)=O)[C@@H](NC(C)=O)[C@H]([C@H](OC(C)=O)[C@@H](COC(C)=O)OC(C)=O)O3)[C@H]2OC(C)=O)[C@H](OC(C)=O)[C@H]1OC(C)=O)NC(=O)CCCCCCCCCCCCCCCCC [Methylic ester of peracetylated GM1, Peracetylated derivative of the methyl ester of the ganglioside GM1]",29.4
133,–,"CCCCCCCCCCCCC/C=C/[C@@H](O)[C@H](CO[C@@H]1O[C@H](CO)[C@@H](O[C@@H]2O[C@H](CO)[C@H](O[C@@H]3O[C@H](CO)[C@H](O)[C@H](O[C@@H]4O[C@H](CO)[C@H](O)[C@H](O)[C@H]4O)[C@H]3NC(C)=O)[C@H](O[C@]3(C(=O)O)C[C@H](O)[C@@H](NC(C)=O)[C@H]([C@H](O)[C@H](O)CO)O3)[C@H]2O)[C@H](O)[C@H]1O)NC(=O)CCCCCCCCCCCCCCCCC [Monosialoganglioside GM1, ganglioside GM1, reference compound]",34.8
–,–,"CCCCCCCCCCCCC/C=C/[C@@H](OC(C)=O)[C@H](CO[C@@H]1O[C@H](COC(C)=O)[C@@H](O[C@@H]2O[C@H](COC(C)=O)[C@H](O[C@@H]3O[C@H](COC(C)=O)[C@H](OC(C)=O)[C@H](O[C@@H]4O[C@H](COC(C)=O)[C@H](OC(C)=O)[C@H](OC(C)=O)[C@H]4OC(C)=O)[C@H]3NC(C)=O)[C@H](O[C@]3(C(=O)O)C[C@H](OC(C)=O)[C@@H](NC(C)=O)[C@H]([C@H](OC(C)=O)[C@@H](COC(C)=O)OC(C)=O)O3)[C@H]2OC(C)=O)[C@H](OC(C)=O)[C@H]1OC(C)=O)NC(=O)CCCCCCCCCCCCCCCCC [Peracetylated GM1, Peracetylated derivative of the ganglioside GM1]",30.2
–,–,"CCCCCCCCCCCCC/C=C/[C@@H](O)[C@H](CO[C@@H]1O[C@H](CO)[C@@H](O[C@@H]2O[C@H](CO)[C@H](O[C@@H]3O[C@H](CO)[C@H](O)[C@H](O[C@@H]4O[C@H](CO)[C@H](O)[C@H](O)[C@H]4O)[C@H]3NC(C)=O)[C@H](O[C@]3(C(=O)OC(C)(C)C)C[C@H](O)[C@@H](NC(C)=O)[C@H]([C@H](O)[C@H](O)CO)O3)[C@H]2O)[C@H](O)[C@H]1O)NC(=O)CCCCCCCCCCCCCCCCC [Tertiarbutylic ester of GM1, Tertiary butyl ester of the ganglioside GM1]",32.3
–,about three,CCCCCCCCCCCCC/C=C/[C@@H](O)[C@H](CO[C@@H]1O[C@H](CO)[C@@H](O[C@@H]2O[C@H](CO)[C@H](O[C@@H]3O[C@H](CO)[C@H](O)[C@H](O[C@@H]4O[C@H](CO)[C@H](O)[C@H](O)[C@H]4O)[C@H]3NC(C)=O)[C@H](O[C@]3(C(=O)O)C[C@H](O)[C@@H](NC(C)=O)[C@H]([C@H](O)[C@H](O)CO)O3)[C@H]2O)[C@H](O)[C@H]1O)NC(=O)CCCCCCCCCCCCCCCCC [tritiated ganglioside],–
